Experimental data: patent US6737039B2, “Methods for detecting lesions in dense breast tissue using LHRH antagonists” (Praecis Pharmaceutics, Inc., priority 1998, dated 2004)
Non-standard residues stand in square brackets, D forms with d. Residues, ends and D or L forms follow the SMILES beside them. dPhe(4-Cl) = N[C@H](Cc1ccc(Cl)cc1)C(=O)O; d2Nal = N[C@H](Cc1ccc2ccccc2c1)C(=O)O; Lys(iPr) = CC(C)NCCCC[C@H](N)C(=O)O; NMeY = CN[C@@H](Cc1ccc(O)cc1)C(=O)O; d3Pal = N[C@H](Cc1cccnc1)C(=O)O

What was measured:
testosterone levels = assay: continuous subcutaneous infusion via osmotic pump, testosterone; format: in vivo, rats
Protocol: (§1) Moreover, upon administration, PPI-149 rapidly reduces sex hormone levels to castrate levels. […] Testosterone levels returned to normal by 24 hours after the 300 μg/kg dose, but not until 72 hours after the 1000 μg/kg dose.

[1] = tested on: plasma testosterone levels; assay: single dose in male rats, plasma testosterone; format: in vivo
Protocol: as §1

[2] = tested on: plasma testosterone levels; assay: eight intravenous doses every three hours, plasma testosterone; format: in vivo, rats
Protocol: as §1

Source text for histamine release: Histamine-releasing activity of an LHRH antagonist can be assayed by the method described in U.S. Pat. No. 4,851,385 to Roeske.

CC(=O)N[C@H](Cc1ccc2ccccc2c1)C(=O)N[C@H](Cc1ccc(Cl)cc1)C(=O)N[C@H](Cc1cccnc1)C(=O)N[C@@H](CO)C(=O)N(C)[C@@H](Cc1ccc(O)cc1)C(=O)N[C@H](CC(N)=O)C(=O)N[C@@H](CC(C)C)C(=O)N[C@@H](CCCCNC(C)C)C(=O)N1CCC[C@H]1C(=O)N[C@H](C)C(N)=O [PPI-149, Ac-D-Nal^1,4-Cl-D-Phe^2, D-Pal^3, N—Me-Tyr^5, D-Asn^6, Lys(iPr)^8, D-Ala^10-LHRH] (Ac-[d2Nal][dPhe(4-Cl)][d3Pal]S[NMeY][dN]L[Lys(iPr)]P[dA]-NH2)
recovery of testosterone levels following pump removal (testosterone levels; after four weeks of continuous subcutaneous infusion): complete within two weeks | time castration level was maintained by subsequent low doses (testosterone levels; after the high dose, 5, 15 or 50 μg/kg/day by continuous subcutaneous infusion): 21 days | time to castrate levels of testosterone (testosterone levels; continuous subcutaneous infusion, 300 or 1000 μg/kg/day for two weeks): ≤ 7 days | time for testosterone levels to return to normal ([1]; single dose 300 μg/kg): ≤ 24 h | time for testosterone levels to return to normal ([1]; single dose 1000 μg/kg): 72 h | plasma testosterone levels ([1]; single dose 300 or 1000 μg/kg, by 6 hours post-administration): decreased to nearly undetectable levels | plasma testosterone levels ([2]; eight intravenous doses of 1 μg/kg every three hours (8 μg/kg/day)): significant decrease | testosterone levels ([2]; eight intravenous doses of 10 μg/kg every three hours (80 μg/kg/day)): castrate levels of testosterone were achieved | histamine releasing activity (histamine release): low
